Data set [1] relates to SCA1 knock-in mice (SCA1154Q/2Q). Put plainly: Rotating rod assay (accelerating rotarod). In kind it is in vivo, mouse. Conditions: SCA1 mice at 26 weeks; for rotarod performance: after two-week ICV delivery from 24 weeks, compared to aCSF-treated SCA1 mice. Here is the method: (§1) To test for behavioral and pathological improvement mice were treated for a two-week period starting at 24 weeks. Nano-VEGF, mouse rVEGF (R&D systems, Minneapolis, Minn.) or artificial CSF (sham controls) were delivered using the intracerebroventricular route (into the right lateral ventricle with stereotaxic coordinates: A/P −0.5 mm, M/L −1.1 mm, D/V −2.5 mm). using osmotic ALZET pumps; model #1002, Durect) (Cvetanovic et al., 2011; herein incorporated by reference in its entirety). Behavioral assays were performed at 26 weeks; while biochemical and histochemical analysis was performed at 27 weeks (after euthanasia). For electrophysiological experiments, we used 8-10 week-old mice for pump placement (with a similar two-week treatment regimen) since it is difficult to generate good electrophysiological traces from older mice.
Rotating Rod Assay: 26-week-old mice (post-treatment) were placed on a rotating rod apparatus (Ugo Basile) that accelerates linearly from 4 to 40 rotations per minute over a 5-minute period. Mice were subjected to four trials per day for four consecutive days, each trial lasting to a maximum of ten minutes, with at least ten minutes of rest between each trial. The average performances for each day were plotted, and statistical differences between the different groups were analyzed using repeated measures two-way ANOVA (followed by Tukey's honest significant difference post-hoc test for multiple comparisons). All statistical analyses here and elsewhere were performed using GraphPad Prism 6 software (GraphPad Software, La Jolla Calif. USA). Data were considered significant for p<0.05. Data are expressed as mean±SEM.
In general terms: Falling from the rotarod earlier than controls is read as motor impairment.

Data set [2] has the same test system. Kind of data set: Gait analysis on transparent treadmill (Digigait). In kind it is in vivo, mouse. Conditions: tested up to 24 cm/s, untreated SCA1 mice barely walk at 5 cm/s. Here is the method: as §1
Gait Analysis: Mice were placed on a transparent treadmill belt connected to a high-speed digital video camera (Digigait© system; Mouse Specifics, Inc.). The speed of the treadmill was set to the minimum of 5 cm/s up to maximum tolerated speed (maxed out at 24 cm/s). The performance of mice on the treadmill at different speeds was recorded with digital video camera.

Data set [3] concerns Purkinje cells. Kind of data set: Calbindin staining, Purkinje cell dendritic length. Format: in vivo, mouse. Conditions: SCA1 mice at 27 weeks; vs aCSF. Here is the method:
as §1
(§2) 27-week-old mice (post treatment and post behavioral analysis) were anesthetized by isoflurane inhalation and were perfused with ice-cold PBS, followed by 4% paraformaldehyde in PBS (Israeli et al., 2016; herein incorporated by reference in its entirety). The brains were post-fixed in 4% paraformaldehyde for 24 hrs, followed by tissue saturation in 30% sucrose for 48-72 hrs. […] After three washes in TBST, signals were detected using according secondary antibodies for 2 hours at RT. […]

The target of a further data set is T1, VEGFR2 (Mus musculus, UniProt P35918).
T1 construct: Cerebellar lysates were prepared in 2× cell lysis buffer; from tissue; host or cells: mouse cerebellum (SCA1 154Q/2Q knock-in and wild-type mice)
T1 sequence (P35918 20-1345): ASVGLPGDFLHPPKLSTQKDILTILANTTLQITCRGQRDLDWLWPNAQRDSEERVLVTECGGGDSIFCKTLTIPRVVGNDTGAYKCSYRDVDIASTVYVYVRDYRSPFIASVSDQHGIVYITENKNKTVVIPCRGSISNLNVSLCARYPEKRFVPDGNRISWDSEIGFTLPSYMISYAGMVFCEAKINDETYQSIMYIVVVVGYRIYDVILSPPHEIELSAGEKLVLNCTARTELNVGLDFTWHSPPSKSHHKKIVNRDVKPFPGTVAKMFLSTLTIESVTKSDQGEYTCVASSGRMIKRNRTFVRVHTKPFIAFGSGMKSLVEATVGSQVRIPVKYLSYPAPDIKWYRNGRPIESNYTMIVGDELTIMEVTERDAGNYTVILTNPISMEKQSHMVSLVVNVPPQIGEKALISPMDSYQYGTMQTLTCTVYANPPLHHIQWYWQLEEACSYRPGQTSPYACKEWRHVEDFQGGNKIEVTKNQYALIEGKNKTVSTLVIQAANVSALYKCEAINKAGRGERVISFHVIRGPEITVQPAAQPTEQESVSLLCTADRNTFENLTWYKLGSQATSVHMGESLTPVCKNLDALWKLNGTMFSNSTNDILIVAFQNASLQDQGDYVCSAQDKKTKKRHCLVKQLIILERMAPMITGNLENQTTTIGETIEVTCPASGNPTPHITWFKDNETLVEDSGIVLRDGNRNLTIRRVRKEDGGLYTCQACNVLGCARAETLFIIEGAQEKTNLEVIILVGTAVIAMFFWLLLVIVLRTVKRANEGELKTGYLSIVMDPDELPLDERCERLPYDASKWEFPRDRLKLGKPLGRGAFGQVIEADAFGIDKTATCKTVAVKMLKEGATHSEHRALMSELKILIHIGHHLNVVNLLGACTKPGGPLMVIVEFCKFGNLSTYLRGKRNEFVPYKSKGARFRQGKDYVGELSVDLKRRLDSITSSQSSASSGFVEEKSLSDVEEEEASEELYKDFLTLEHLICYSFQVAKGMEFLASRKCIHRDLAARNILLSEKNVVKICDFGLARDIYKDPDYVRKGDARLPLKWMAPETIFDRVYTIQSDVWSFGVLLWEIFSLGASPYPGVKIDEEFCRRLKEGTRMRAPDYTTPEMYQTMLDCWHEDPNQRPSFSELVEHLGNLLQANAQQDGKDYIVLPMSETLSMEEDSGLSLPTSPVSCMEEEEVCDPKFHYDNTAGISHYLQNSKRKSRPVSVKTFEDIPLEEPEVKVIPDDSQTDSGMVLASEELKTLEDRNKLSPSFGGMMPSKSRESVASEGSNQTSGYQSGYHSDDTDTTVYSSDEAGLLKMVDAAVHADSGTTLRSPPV
Put plainly: Phospho-VEGFR2 ELISA on cerebellar lysates. Format: in vivo. On the procedure:
as §1
Phospho-VEGFR2 ELISA was performed using PathScan® Phospho-VEGFR2 (Ty1175) Sandwich ELISA kit (7335, Cell Signaling), according to manufacturer's instruction. Cerebellar lysates were prepared in 2× cell lysis buffer, and undiluted tissue lysates were incubated in 96-well plates coated with phosphor-VEGFR2 primary antibody overnight at 4° C. Wells were washed several times, and detection antibody was added to the well and incubated for 1 hr at 37C and with HRP-conjugated secondary antibody for 30 min at 37° C. Signals were detected with 3,3′,5,5′-Tetramethylbenzidine (TMB) substrate and sulfuric acid were added to stop the reaction. Absorbance was read at 450 nm within 30 min after stopping the reaction.
(In general: An ELISA detects its analyte on a solid surface through an enzyme-linked reagent.)

The subject of data set [4] is cerebellar microvasculature. Put plainly: Collagen IV immunostaining of cerebellar microvessels (AngioTool). Format: in vivo, mouse. Conditions: SCA1 mice cerebella. On the procedure:
as §1, §2

The subject of data set [5] is ZO-1, Claudin-5 and Occludin. Put plainly: Western blot of tight junction proteins in cerebella. Conditions: SCA1 mice cerebella, normalized to actin. In kind it is in vivo, mouse. On the procedure:
as §1
(§3) Proteins were extracted from cerebellar tissues using radioimmunoprecipitation assay (RIPA) buffer (50 mM Tris-HCl, pH 8.0, 150 mM NaCl, 1 mM EDTA, 10 mM NaF, 0.5% Sodium deoxycholate, 1% Triton-X 100, 0.1% SDS, protease inhibitors (Sigma)), and resolved on 7.5% SDS-PAGE gel. Densitometric analysis was evaluated using ImageJ 1.46r software (National Institutes of Health, Bethesda, Md., USA). […]
A general note: A western blot detects proteins with antibodies after separation by electrophoresis.

The next data set relates to Ataxin-1. Kind of data set: Western blot of Ataxin-1. Format: in vivo, mouse. Conditions: SCA1 mice, two weeks of treatment. Here is the method: as §1, §3
The subject of the next data set is Ataxin-1 inclusions. Put plainly: Immunohistochemistry of Ataxin-1 inclusions in hippocampal CA1. In kind it is in vivo, mouse. Conditions: SCA1 mice, 27 weeks; vs aCSF. Here is the method:
as §1
To quantify the percentage of cells with ataxin-1 inclusions in the CA1 regions of the hippocampus, brain sections were stained for ataxin-1 (mouse anti-Ataxin-1 11NQ clone N76/3; NeuroMab, 1:1000) and counterstained with DAPI. The number of cells with ataxin-1 inclusions in each defined region of interest was normalized to the number of cells stained with DAPI only. Statistical analysis was performed using unpaired t test. […]

Data set [6] deals with Purkinje cells. Kind of data set: Electrophysiological slice recordings, cell-attached, spontaneous firing. Conditions: SCA1 mice treated from 8-10 weeks for two weeks; vs vehicle (aCSF). In kind it is in vivo, mouse. On the procedure: as §1
Mice were anesthetized with isoflurane and killed by decapitation. The brains were removed from the skull and placed in warm (30-33° C.) artificial cerebrospinal fluid (ACSF) containing (in mM): 125 NaCl, 25 NaHCO3, 2.5 KCl, 1.25 NaH2PO4, 0.5 CaCl2), 7 MgCl2, 75 sucrose and 25 glucose, equilibrated with 95% O2 and 5% CO2 (pH 7.4). 300 μm thick para-sagittal cerebellar slices were cut using a vibratome (Leica VT1200) and stored in the same solution at 34° C. for 15 min and then at 20-22° C. until used (<6 hours). […] Cells were recorded in the I-Clamp fast mode. […]

For data set [7] the following is noted: cited from earlier work.
The conditions of data set [8]: cited from earlier work. The source holds these as a separate data set.
The mark [9] stands for this setting: SCA1 mice, cerebellar lysates, vs aCSF.

Entries after “also recorded” stand apart in the source; their conditions may differ. C16 = N-terminal C16 alkyl chain

For the molecule “C16-V2A2K3G-KLTWQELYQLKYKGI (C16-VVAAKKKGKLTWQELYQLKYKGI-NH2) [nano-VEGF, VEGF peptide (mimics VEGF residues 17-25) linked at N terminus to K3G, V2A2 β-domain and C16 alkyl chain; self-assembling peptide amphiphile]”, the rotarod performance result is listed as “performed markedly better than control SCA1 mice treated with artificial CSF” in [1] and “improved rotarod performance” in data set [1] (listed as Nano-VEGF). In data set [1] (nano-VEGF 20.0 μg vs rVEGF 2.5 μg over two weeks ICV), the “rotarod improvement, nano-VEGF compared with rVEGF” value was “tended to produce a greater improvement than rVEGF; also recorded: more effective”. Also, the “treadmill speed at which treated mice could walk and even run” value in data set [2] was determined as 17 cm/s. The “Purkinje cell dendritic length (calbindin staining)” value with Purkinje cells [3] is on record as “significantly increase dendritic length”. Besides, the VEGFR2 phosphorylation level entry in the data set with VEGFR2 (setting [9]) is listed as “rescued”; with VEGFR2 (wild-type (WT) mice), “did not upregulate phosphorylation of VEGFR2”. The “average vessel length, improvement compared with rVEGF” value in [4] is listed as “greater improvement”. Also, the “branching index, improvement compared with rVEGF” value in data set [4] is recorded as “greater improvement”. The “levels of capillary proteins (tight junction markers ZO-1, Claudin-4, and Occludin)” value in [5] was “more effective than rVEGF”. In addition, in the data set with Ataxin-1, the Ataxin-1 protein levels entry was “does not alter Ataxin-1 levels”. For the same molecule, the “percentage of cells with Ataxin-1 inclusions in the CA1 of hippocampi” value with Ataxin-1 inclusions was “does not differ from that of aCSF-treated mice”. The “spontaneous firing of Purkinje cells” value in the data set with Purkinje cells [6] was “significantly faster and more regular firing; also recorded: increases firing in Purkinje cells”. For the same molecule, the “bioequivalence relative to rVEGF” value in data set [7] (functional studies in mouse hind-limb ischemia model, basis for dose 20.0 μg vs 2.5 μg) is on record as “approximately eight times that of rVEGF”. For the same molecule, in data set [7] (ischemic limb model), the time detectable post-injection entry is “up to 4 weeks”. Also, the “retention of particles in tissue” value in data set [7] (mouse hind-limb ischemia model) is “retained in tissue even four weeks after delivery”.

B1: rVEGF: mouse recombinant VEGF (R&D systems) (protein)
chain: APTTEGEQKSHEVIKFMDVYQRSYCRPIETLVDIFQEYPDEIEYIFKPSCVPLMRCAGCCNDEALECVPTSESNITMQIMRIKPHQSQHIGEMSFLQHSRCECRPKKDRTKPENHCEPCSERRKHLFVQDPQTCKCSCKNTDSRCKARQLELNERTCRCDKPRR
Consider B1, for which the rotarod performance result in data set [1] is reported as “performed markedly better than control SCA1 mice treated with artificial CSF; also recorded: improved rotarod performance”. Besides, in data set [2], the “treadmill speed at which treated mice could walk and even run” value stood at 17 cm/s. For the same molecule, the “Purkinje cell dendritic length (calbindin staining)” value in the data set with Purkinje cells [3] is recorded as “significantly increase dendritic length”. The VEGFR2 phosphorylation level result with VEGFR2 (setting [9]) was “rescued”; in the data set with VEGFR2 (wild-type (WT) mice) it was “did not upregulate phosphorylation of VEGFR2”. Moreover, in [8], the half-life in vivo result is “about 30 minutes”.

Source of the values: patent US20220118051A1, “SELF-ASSEMBLING VEGF NANOPARTICLES” (Northwestern University, priority 2018, published 2022).
